Measurements: patent publication US10974064B2, “Optogenetic control of behavioral state” (The Board of Trustees of the Leland Stanford Junior …, priority 2013, dated 2021)

Columns and labels:
adBNST neurons [1] = experiment: Calcium imaging (OGB-1) of persistent activity in adBNST slice after electrical stimulation; assay type: cell-based, mice; conditions: 100 μM APV, then 10 μM NBQX added; N (all cells) 277 for APV, 279 for NBQX + APV
adBNST neurons [2] = experiment: Ex vivo slice voltage-clamp recording of light-evoked EPSCs and IPSCs (ChR2 in BLA afferents); assay type: cell-based, mice; conditions: bath application 100 μM picrotoxin; n=4
Method: For slice physiology in combination with optogenetics, 3-4 week old male wild-type mice were injected with AAV-CaMKIIa::ChR2-eYFP into the BLA, or male Drd1a-Cre mice were injected with AAV-EFla::DIO-ChR2(H134R)-eYFP into the ovBNST. After a month, acute 300 μm coronal slices were obtained by transcardially perfusing ice-cold sucrose cutting solution (in mM; 11 D-glucose, 234 sucrose, 2.5 KCl, 1.25 NaH2PO4, 10 MgSO4, 0.5 CaCl2, 26 NaHCO3) and slicing in the same solution using a vibratome (VT1000S; Leica, Buffalo Grove, Ill., USA). Slices were recovered in oxygenated artificial cerebrospinal fluid (aCSF; in mM, 123 NaCl, 26 NaHCO3, 3 KCl, 1.25 NaH2PO4, 1 MgCl2, 2 CaCl2, and 11 glucose) at 32° C. for one hour. […]
For the blue light delivery, light was emitted from a 300 W broad-wavelength xenon lamp source (DG-4, Sutter Instruments, Novato, Calif., USA), band-pass filtered at 470±20 nm (Semrock; Rochester, N.Y., USA), passed through additional neutral density filters (ThorLabs; Newton, N.J., USA) and coupled to the fluorescence port of the microscope. […]
Voltage-clamp recordings were made at both −70 mV to isolate EPSCs, and at 0 mV to isolate IPSCs. […] Currents were filtered at 2 kHz, digitized at 50 kHz, and recorded to disk using pClamp10 software (Molecular Devices). […]

| Compound | N (number of cells activated after stimulation) (adBNST neurons [1]) | light-evoked IPSCs (adBNST neurons [2]) |
| --- | --- | --- |
| NC(CCCP(=O)(O)O)C(=O)O (centres unmarked) [APV, 2-amino-5-phosphonopentanoic acid] | 61 |  |
| picrotoxin |  | blocked |
